This is an account of results in patent US4771046A, “Carbapenem derivatives” (Sankyo Company, Limited, priority 1985, dated 1988).

The conditions of data set [1]: cited from earlier work.
The test system of another data set is dehydropeptidase I. Particulars: in vivo in mammals; cited from earlier work.
Another data set relates to Proteus vulgaris 1420. Kind of data set: Minimum inhibitory concentration, agar plate dilution method. In kind it is cell-based. The text has this:
(§1) Table 2 sets out the activities of six of the compounds of the present invention against various bacteria, in terms of their minimal inhibitory concentrations (μg/ml). These compounds are identified by the same numbers as used in Table 1 above.
(§2) Minimum Inhibitory Concentrations (μg/ml)
(§3) In the compounds used in Table 2, compounds 1, 15 and 27 have the (5R,6S) configuration, and compounds 2, 16 and 28 have the (1R,5S,6S) configuration. In all six of the compounds, the configuration of the hydroxy group in the side-chain at position 6 is (1R).

Another data set deals with Staphylococcus aureus 56. The description is as above. In kind it is cell-based.
Text: as §1, §2, §3

In the next data set the test system is Serratia marcescens 1184. The description is as above. In kind it is cell-based.
Text: as §1, §2, §3

Data set [2] has as its system Klebsiella pneumoniae 806. The data set is described as above. In kind it is cell-based.
Text: as §1, §2, §3

A further data set relates to Escherichia coli 609. The description is as above. It is filed as cell-based.
Text: as §1, §2, §3

Data set [3] concerns Klebsiella pneumoniae 846. The description is as above. It is filed as cell-based.
Text: as §1, §2, §3

Data set [4] has as its system Staphylococcus aureus 209P. Described as above. In kind it is cell-based.
Text: as §1, §2, §3

Another data set relates to Enterobacter cloacae 963. The description is as above. It is filed as cell-based.
Text: as §1, §2, §3

A further data set relates to Escherichia coli NIHJ. Described as above. It is filed as cell-based.
Text: as §1, §2, §3

A further data set has as its system mice. The experiment in a line: Toxicity in mice (survival). It is filed as in vivo.
The next data set concerns Salmonella enteritidis. The experiment in a line: Minimum inhibitory concentration, agar plate dilution method. It is filed as cell-based. Particulars: Salmonella enterica.
Text: as §1, §2, §3

Converted amounts (≈) assume the structure as drawn.

Take `C[C@@H](O)[C@H]1C(=O)N2C(C(=O)O)=C(SCCN)C[C@H]12` [thienamycin, 2-(2-aminoethylthio)-6-(1-hydroxyethyl)carbapen-2-em-3-carboxylic acid]: the “chemical stability in the human body” value in data set [1] is “poor”. Also, the “inactivation by dehydropeptidase I” value with dehydropeptidase I is “inactivated in vivo in mammals by dehydropeptidase I”.

Usually MIC stands for the lowest concentration that inhibits growth of the organism. A low value points to a more susceptible organism. For the compound `C[C@@H](O)[C@H]1C(=O)N2C(C(=O)O)=C(SCC(=N)N3CCC(=NO)CC3)C[C@H]12` [Compound No. 27, (5R,6S)-2-[2-(4-Hydroxyiminopiperidin-1-yl)-2-iminoethylthio]-6-[(1R)-1-hydroxyethyl]-1-carbapen-2-em-3-carboxylic acid], the MIC in the data set on Proteus vulgaris 1420 was 0.8 µg/mL (≈ 2.09 µM); in the data set with Staphylococcus aureus 56, 0.02 µg/mL (≈ 0.0523 µM); with Serratia marcescens 1184, 0.1 µg/mL (≈ 0.261 µM); in data set [2] it was 0.1 µg/mL (≈ 0.261 µM); in the data set with Escherichia coli 609, 0.1 µg/mL (≈ 0.261 µM); in data set [3], 0.05 µg/mL (≈ 0.131 µM). For the same compound, the MIC in [4] is not above 0.01 µg/mL; with Enterobacter cloacae 963, 0.8 µg/mL (≈ 2.09 µM); against Escherichia coli NIHJ it was 0.1 µg/mL (≈ 0.261 µM). Besides, the “dosage at which mice survive” value with mice (mouse, in vivo) is listed as “above 2,000 mg/kg”.

As to `C[C@@H](O)[C@H]1C(=O)N2C(C(=O)O)=C(SCC(=N)N3CC[C@@H](OC(N)=O)C3)C[C@H]12` [Compound No. 15, (5R,6S)-2-{2-[(3R)-3-Carbamoyloxypyrrolidin-1-yl]-2-iminoethylthio}-6-[(1R)-1-hydroxyethyl]-1-carbapen-2-em-3-carboxylic acid], the MIC with Proteus vulgaris 1420 was found to be 1.5 µg/mL (≈ 3.76 µM); against Staphylococcus aureus 56 it was 0.02 µg/mL (≈ 0.0502 µM); against Serratia marcescens 1184, 0.1 µg/mL (≈ 0.251 µM); in data set [2] it was 0.1 µg/mL (≈ 0.251 µM); with Escherichia coli 609 it was 0.1 µg/mL (≈ 0.251 µM); in [3], 0.05 µg/mL (≈ 0.125 µM). Besides, the minimal inhibitory concentration (MIC) is not above 0.01 µg/mL in data set [4], 1.5 µg/mL (≈ 3.76 µM) against Enterobacter cloacae 963 and 0.1 µg/mL (≈ 0.251 µM) against Escherichia coli NIHJ. Besides, the “dosage at which mice survive” value in the data set on mice (mice) was “above 2,000 mg/kg”.

In the case of `C[C@@H](O)[C@H]1C(=O)N2C(C(=O)O)=C(SCC(=N)N3CCC(=NO)CC3)[C@H](C)[C@H]12` [Compound No. 28, (1R,5S,6S)-2-[2-(4-Hydroxyiminopiperidin-1-yl)-2-iminoethylthio]-6-[(1R)-1-hydroxyethyl]-1-methyl-1-carbapen-2-em-3-carboxylic acid], the minimum inhibitory concentration (MIC) against Proteus vulgaris 1420 came to 1.5 µg/mL (≈ 3.78 µM); against Staphylococcus aureus 56 it was 0.05 µg/mL (≈ 0.126 µM); against Serratia marcescens 1184, 0.1 µg/mL (≈ 0.252 µM); in data set [2], 0.05 µg/mL (≈ 0.126 µM); against Escherichia coli 609, 0.1 µg/mL (≈ 0.252 µM); in [3], 0.05 µg/mL (≈ 0.126 µM). Besides, the results for the MIC (in [4]; against Enterobacter cloacae 963; in the data set on Escherichia coli NIHJ) were not above 0.01 µg/mL, 0.4 µg/mL (≈ 1.01 µM) and 0.02 µg/mL (≈ 0.0504 µM), respectively.

In the case of `C[C@@H](O)[C@H]1C(=O)N2C(C(=O)O)=C(SCC(=N)N3CC[C@@H](OC(N)=O)C3)[C@H](C)[C@H]12` [Compound No. 16, (1R,5S,6S)-2-{2-[(3R)-3-Carbamoyloxypyrrolidin-1-yl]-2-iminoethylthio}-6-[(1R)-1-hydroxyethyl]-1-methyl-1-carbapen-2-em-3-carboxylic acid], the MIC against Proteus vulgaris 1420 is 3.1 µg/mL (≈ 7.52 µM); against Staphylococcus aureus 56, 0.05 µg/mL (≈ 0.121 µM); in the data set with Serratia marcescens 1184, 0.1 µg/mL (≈ 0.242 µM); in data set [2], 0.05 µg/mL (≈ 0.121 µM); against Escherichia coli 609, 0.1 µg/mL (≈ 0.242 µM); in data set [3] it was 0.1 µg/mL (≈ 0.242 µM). Further, the values for the MIC (in data set [4]; with Enterobacter cloacae 963; in the data set on Escherichia coli NIHJ) were not above 0.01 µg/mL, 0.8 µg/mL (≈ 1.94 µM) and 0.05 µg/mL (≈ 0.121 µM), respectively.

For the compound `C[C@@H](O)[C@H]1C(=O)N2C(C(=O)O)=C(SCC(=N)N3CCNC(=O)C3)[C@H](C)[C@H]12` [Compound No. 2, (1R,5S,6S)-2-[2-(3-Oxopiperazin-1-yl)-2-iminoethylthio]-6-[(1R)-1-hydroxyethyl]-1-methyl-1-carbapen-2-em-3-carboxylic acid], the MIC in the data set with Proteus vulgaris 1420 stood at 0.4 µg/mL (≈ 1.05 µM); in the data set on Staphylococcus aureus 56, 0.05 µg/mL (≈ 0.131 µM); against Serratia marcescens 1184, 0.1 µg/mL (≈ 0.261 µM); in data set [2], 0.02 µg/mL (≈ 0.0523 µM); with Escherichia coli 609, 0.05 µg/mL (≈ 0.131 µM); in [3], 0.05 µg/mL (≈ 0.131 µM). Also, the minimum inhibitory concentration (MIC) against Salmonella enteritidis is 0.05 µg/mL (≈ 0.131 µM); in data set [4], not above 0.01 µg/mL; in the data set on Enterobacter cloacae 963 it was 0.4 µg/mL (≈ 1.05 µM); against Escherichia coli NIHJ, 0.02 µg/mL (≈ 0.0523 µM).

With `C[C@@H](O)[C@H]1C(=O)N2C(C(=O)O)=C(SCC(=N)N3CCN(C)C(=O)C3)C[C@H]12` [Compound No. 3, (5R,6S)-2-[2-(4-Methyl-3-oxopiperazin-1-yl)-2-iminoethylthio]-6-[(1R)-1-hydroxethyl]-1-carbapen-2-em-3-carboxylic acid], in the data set with mice (mice), the “dosage at which mice survive” value is listed as “above 2,000 mg/kg”.

Take `C[C@@H](O)[C@H]1C(=O)N2C(C(=O)O)=C(SCC(=N)N3CCNC(=O)C3)C[C@H]12` [Compound No. 1, (5R,6S)-2-[2-(3-Oxopiperazin-1-yl)-2-iminoethylthio]-6-[(1R)-1-hydroxyethyl]-1-carbapen-2-em-3-carboxylic acid]: the MIC with Proteus vulgaris 1420 turned out to be 1.5 µg/mL (≈ 4.07 µM); in the data set on Staphylococcus aureus 56 it was 0.05 µg/mL (≈ 0.136 µM); against Serratia marcescens 1184, 0.2 µg/mL (≈ 0.543 µM); in [2], 0.2 µg/mL (≈ 0.543 µM); with Escherichia coli 609 it was 0.4 µg/mL (≈ 1.09 µM); in data set [3], 0.1 µg/mL (≈ 0.271 µM). In addition, the MIC is 0.1 µg/mL (≈ 0.271 µM) against Salmonella enteritidis, not above 0.01 µg/mL in data set [4], 0.8 µg/mL (≈ 2.17 µM) in the data set with Enterobacter cloacae 963 and 0.1 µg/mL (≈ 0.271 µM) against Escherichia coli NIHJ.
